Assays:
V. harveyi strains [1] = assay: MIC, broth dilution antibacterial susceptibility test; type: cell-based
Method: A series of V. harveyi strains (wild-type and mutants), marine bacteria which are used as a widely accepted model for testing quorum sensing, was used in the experiments below.
MIC was determined according to the CLSI, formerly NCCLS (National Committee for Clinical Laboratory Standards) recommendation for broth dilution antibacterial susceptibility test.
All the tested V. harveyi strains (adjusted to 0.5 MacFarlane standard suspension) were grown at 30° C., in the presence of the tested agent at concentrations ranging from 2 μM to 10 mM, in 96-well transparent micro-titration plates (NUNC, Denmark).
After 18 hours of incubation, bacterial growth was determined according to the density measured by absorbance at 595 nm (GENios reader TECAN-Austria).
Each experiment was conducted in triplicate samples and repeated three times. Based on MIC results, the exemplary anti-biofilm forming agent with the highest MIC values (lowest antibacterial activity) was selected for the anti-quorum sensing activity screening assay.

V. harveyi strains [2] = assay: Quorum sensing inhibition (luminescence), planktonic conditions; type: cell-based; conditions: BB120, BB170, BB886, BB721, JAF375, with AI-1, AI-2 or AI-0 spent medium
Method: Mutant strains of V. harveyi, which are impaired at different locations of the quorum sensing (QS) cascade (see, Table 1 hereinabove) were used for the QSI assays. Bacteria were grown to cell density of 1.5-2.5×10^9 CFU/ml (15-16 hours) in AB medium at 30° C. with constant shaking. The fresh cultures were then diluted 5000-fold in fresh AB medium containing TZD10, an exemplary ABF agent according to embodiments of the present invention, at concentrations of 0.02, 0.2, 20 and 200 μM. […]
The assay was conducted in white 96-well microtitraton plates with a clear bottom (NUNC, Denmark). Luminescence was measured continuously by a GENios reader (TECAN, Austria) every 30 minutes and the bacterial density was determined (O.D. 595 nm).
Each sample was tested in three separate biological experiments, each conducted in triplicate samples. The effect of the ABF agent was determined relatively to the endogenous level of luminescence expressed by V. harveyi BB120, BB721, BB170, BB886 and JAF375 relative to the OD, by calculating the area under the curve (AUC) between 3.5-7 hours, applying the trapezoid rule for AUC calculation.

V. harveyi biofilm = assay: Quorum sensing (luminescence) in mature biofilm; type: cell-based; design: reduction of QS: dose or concentration left out as unconfirmed; conditions: for reduction of QSI: maximal tested concentration
Method: The working protocol for the biofilm disruption assays were conducted as follows. The tested V. harveyi strains (BB120, BB721, BB170, BB886) were grown to cell density of 1.5-2.5×10^9 CFU/ml (15-16 hrs) in AB medium at 30° C. with constant shaking and the suspension was diluted (1:5,000) in fresh AB medium. Aliquot of the suspension (200 μl) was added to each well in a white 96-well plate (NUNC) and incubated for 18 hours at 30° C. without shaking. The formed biofilm was carefully washed twice with saline. Fresh AB medium containing the exemplary ABF agent at the various tested concentrations, and either 10% (v/v) spent medium of V. harveyi MM30 (containing AI-1) or 10% (v/v) spent medium of V. harveyi BB152 (containing AI-2) were added, for further 18 hours of incubation as described above. Each sample was also tested without the spent medium as control to examine self induction. Positive and negative controls were included as described above. Each sample was tested in three separate biological experiments in triplicate samples. Luminescence was calculated as the AUC using the trapezoid rule.

[3] = Solubility observed in the Vero cell assay wells; type: physicochemical; conditions: at a concentration of 100 μg/ml and above; crystals at bottom of well
Vero cells [4] = assay: Vero cell viability assay (XTT); type: cell-based; conditions: 160 minutes
Method: The effect of TZD10 on the viability of Vero cells was detected by incubating the cells for 40 minutes with TZD10, and further incubation for 120 minutes with the XTT reagents in the same medium without washings, so that the total incubation time with TZD10 was 160 minutes. The cells were treated with TZD10 for 40 minutes without the XTT reagents that were then added for further 120 minutes incubation.

Vero cells [5] = assay: Vero cells detachment from T-flasks; type: cell-based; conditions: 100 μg/ml TZD10 + 1.34 mM EDTA in PBS, 40 minutes
Method: Vero cells were grown on for 6 days in T-flask with DMEM+10% FCS+Hepes+Glutamine+Pen-strep (Beit HaEmek). The cells were then washed with PBS and incubated for 40 minutes with 100 μg/ml TZD10+1.34 mM (about 0.5 mg/ml) EDTA in PBS without calcium and magnesium (Beit HaEmek).

MDCK cells [6] = assay: MDCK cells detachment assay; type: cell-based, canine
Method: (§1) Madine-Derby canine kidney cells (MDCK) are a non-cancerous, polarized epithelial cell line, used in the research of cell polarity mechanisms, and in the research of pathogen interactions with epithelial tissues. These cells produce monolayers in which cells are polarized and tightly connected to each other. The cells were treated with TZD10 for 40 minutes without the XTT reagents that were then added for further 120 minutes incubation. The influence of TZD10 on the attachment of MDCK cells was investigated using an identical method used for the Vero cells (the 96 well polystyrene plate method) as presented hereinabove.

MDCK cells [7] = assay: MDCK cells viability assay (XTT); type: cell-based, canine; conditions: 40 minutes + 120 minutes with XTT
Method: as §1

## CCCCCCCCC/C=C1\SC(=O)NC1=O [TZD10, (Z)-5-decylidenethiazolidine-2,4-dione]
V. harveyi strains [1]; V. harveyi mutants and wild-type
  antibacterial activity: lack of antibacterial activity per se
V. harveyi strains [1]; Vibrio harveyi
  MIC: < 10 mM
V. harveyi strains [1]; strain BB120 (wild-type)
  MIC: <10 mM
V. harveyi strains [1]; strain BB170 (sensor 1-, sensor 2+)
  MIC: <10 mM
V. harveyi strains [1]; strain BB721 (LuxO null)
  MIC: <10 mM
V. harveyi strains [1]; strain BB886 (sensor 1+, sensor 2-)
  MIC: <10 mM
V. harveyi strains [2]
  effect on quorum sensing (luminescence): classic dose-response curve
V. harveyi biofilm; AI-1 spent medium, 0.200 μM, BB886
  reduction of QSI activity: 39%
V. harveyi biofilm; AI-1 spent medium, 0.200 μM, wild-type
  reduction of QSI activity: 62%
V. harveyi biofilm; AI-1 spent medium, 2 μM, BB886
  reduction of QS activity: 10%
V. harveyi biofilm; AI-1 spent medium, 2 μM, wild type BB120
  reduction of QS activity: 18%
V. harveyi biofilm; AI-2 spent medium, 2 μM, BB170
  change in QSI: minor increase
V. harveyi biofilm; AI-2 spent medium, 2 μM, BB721 (LuxO null)
  reduction of QSI activity: 25%
V. harveyi biofilm; AI-2 spent medium, 2 μM, wild-type BB120
  change in QSI: minor increase
V. harveyi biofilm; AI-2 spent medium, BB170
  reduction of QSI: 44%
V. harveyi biofilm; AI-2 spent medium, BB721
  reduction of QSI: 72%
V. harveyi biofilm; AI-2 spent medium, wild-type
  reduction of QSI: 35%
V. harveyi biofilm; all tested strains, mature biofilm
  QS inhibition versus concentration: positive dose response
V. harveyi biofilm; no AI-1 nor AI-2, BB170, 2 μM
  effect on QS: no effect
V. harveyi biofilm; no AI-1 nor AI-2, BB170, highest tested concentration
  reduction of QS: 62%
V. harveyi biofilm; no AI-1 nor AI-2, BB721, 2 μM
  reduction of QSI activity: 38%
V. harveyi biofilm; no AI-1 nor AI-2, BB721, 20 μM
  reduction of QSI activity: 63%
V. harveyi biofilm; no AI-1 nor AI-2, BB721, 200 μM
  reduction of QSI activity: 79%
V. harveyi biofilm; no AI-1 nor AI-2, BB886, 2 μM
  reduction of QSI activity: 30%
V. harveyi biofilm; no AI-1 nor AI-2, BB886, 200 μM
  reduction of QSI activity: 40%
[3]
  solubility: not completely soluble
Vero cells [4]; 125 μg/ml and above
  toxicity to Vero cells: partially cytotoxic
Vero cells [4]; up to 100 μg/ml
  toxicity to Vero cells: not toxic
Vero cells [5]
  cell release from T-flask: could be released from the flask by pipettetion
MDCK cells [6]
  cell detachment from the polystyrene dish: detached
  time of detachment compared with Vero cells: observed sooner than it has been observed with Vero cells
MDCK cells [7]
  toxicity compared with Vero cells: more toxic to MDCK cells than to Vero cells

From patent US8865909B2, “Anti-biofilm agents” (Yissum Research Development Company of the Hebrew …, priority 2008, dated 2014)
